# Patent US6737383B1, “Herbicidal oxadiazolidines” (priority 1999, dated 2004)
# Tests used:
# bedstraw = assay: Test B pre/postemergence bedstraw; assay type: in vivo, Galium aparine; conditions: scale of 0 to 10 where 0 is no effect and 10 is complete control
# Procedure, shortened: (§1)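 Response is a visual 0-to-10 score relative to untreated plants, where 0 means no effect and 10 means complete control, taken twelve to sixteen days after application. Treatments went onto soil at planting and onto foliage of 1- to 4-leaf plants, using a surfactant-containing non-phytotoxic solvent.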
# blackgrass = assay: Test B pre/postemergence blackgrass; assay type: in vivo, Alopecurus myosuroides
# Procedure, shortened: as §1
# surinam grass = assay: Test B pre/postemergence surinam grass; assay type: in vivo, Brachiaria decumbens
# Procedure, shortened: as §1
# cocklebur = assay: Test B pre/postemergence cocklebur; assay type: in vivo, Xanthium strumarium
# Procedure, shortened: as §1
# corn = assay: Test B pre/postemergence corn; assay type: in vivo, Zea mays
# Procedure, shortened: as §1
# crabgrass = assay: Test B pre/postemergence crabgrass; assay type: in vivo, Digitaria sanguinalis
# Procedure, shortened: as §1
# giant foxtail = assay: Test B pre/postemergence giant foxtail; assay type: in vivo, Setaria faberii
# Procedure, shortened: as §1
# morningglory = assay: Test B pre/postemergence morningglory; assay type: in vivo, Ipomoea hederacea
# Procedure, shortened: as §1
# pigweed = assay: Test B pre/postemergence pigweed; assay type: in vivo, Amaranthus retroflexus
# Procedure, shortened: as §1
# rape = assay: Test B pre/postemergence rape; assay type: in vivo, Brassica napus
# Procedure, shortened: as §1
# sugar beet = assay: Test B pre/postemergence sugar beet; assay type: in vivo, Beta vulgaris
# Procedure, shortened: as §1
# velvetleaf = assay: Test B pre/postemergence velvetleaf; assay type: in vivo, Abutilon theophrasti
# Procedure, shortened: as §1
# wild oat = assay: Test B pre/postemergence wild oat; assay type: in vivo, Avena fatua
# Procedure, shortened: as §1
# rice = assay: Test B flood test rice; assay type: in vivo, Oryza sativa
# Procedure, shortened: (§2)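 Read-out is a visual response score from 0 (no effect) to 10 (complete control), assigned by comparison with untreated controls. Treatment was applied at the 2-leaf stage, and plants stayed in the greenhouse for twelve to sixteen days before scoring.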
# smallflower flatsedge = assay: Test B flood test smallflower flatsedge; assay type: in vivo, Cyperus difformis
# Procedure, shortened: as §2
# bamyardgrass = assay: Test B flood test barnyardgrass; assay type: in vivo, Echinochloa crus-galli
# Procedure, shortened: as §2
# [1] = Postemergence, Rate 250 g/ha, scale 0 to 10, 0 is no effect, 10 is complete control
# [2] = Postemergence, Rate 500 g/ha, scale of 0 to 10 where 0 is no effect and 10 is complete control
# [3] = Preemergence, Rate 62 g/ha, scale 0 to 10 (0 no effect, 10 complete control)
# [4] = Preemergence, Rate 125 g/ha, scale of 0 to 10 where 0 is no effect and 10 is complete control
# [5] = Preemergence, Rate 250 g/ha, scale of 0 to 10 where 0 is no effect and 10 is complete control
# [6] = Preemergence, Rate 500 g/ha, scale of 0 to 10 where 0 is no effect and 10 is complete control
# [7] = Rate 62 g/ha, Postemergence, scale of 0 to 10 where 0 is no effect and 10 is complete control
# [8] = Postemergence, Rate 125 g/ha, scale 0 to 10, 0 is no effect, 10 is complete control
# [9] = Rate 62 g/ha, flood test species, Pre-emergence, visual evaluation after twelve to sixteen days
# [10] = Rate 125 g/ha, under heading Pre-emergence, flood test species, visual evaluation after twelve to sixteen days
# [11] = Rate 250 g/ha, Pre-emergence, flood-test species, scale 0 to 10, 0 is no effect, 10 is complete control
# [12] = Rate 500 g/ha, Pre-emergence, flood test species, scale 0 to 10 (0 no effect, 10 complete control)
compound,measurement,setting,value
CC(C)N(C(=O)n1oc(=O)n(C(CF)CF)c1=O)c1ccc(F)cc1 [Compound 390],Bedstraw plant response rating,"bedstraw; Postemergence, Rate 500 g/ha",7
same,"Plant response rating, Bedstraw","bedstraw; Preemergence, Rate 125 g/ha",0
same,"Plant response rating, Blackgrass",blackgrass; [1],9
same,Blackgrass plant response rating,blackgrass; [2],9
same,"Plant response rating, Blackgrass",blackgrass; [3],6
same,"Plant response rating, Blackgrass",blackgrass; [4],9
same,Blackgrass plant response rating,blackgrass; [5],9
same,Blackgrass plant response rating,blackgrass; [6],10
same,Blackgrass plant response rating,blackgrass; [7],8
same,"Plant response rating, B. signalgrass",surinam grass; [8],5
same,"Plant response rating, B. signalgrass",surinam grass; [1],5
same,B. signalgrass plant response rating,surinam grass; [2],8
same,"Plant response rating, B. signalgrass",surinam grass; [3],1
same,"Plant response rating, B. signalgrass",surinam grass; [4],5
same,B. signalgrass plant response rating,surinam grass; [5],9
same,B. signalgrass plant response rating,surinam grass; [6],10
same,B. signalgrass plant response rating,surinam grass; [7],2
same,"Plant response rating, Cocklebur",cocklebur; [8],0
same,"Plant response rating, Cocklebur",cocklebur; [1],3
same,Cocklebur plant response rating,cocklebur; [2],7
same,"Plant response rating, Cocklebur",cocklebur; [3],0
same,"Plant response rating, Cocklebur",cocklebur; [4],0
same,Cocklebur plant response rating,cocklebur; [5],2
same,Cocklebur plant response rating,cocklebur; [7],0
same,"Plant response rating, Corn",corn; [8],0
same,"Plant response rating, Corn",corn; [1],0
same,Corn plant response rating,corn; [2],0
same,"Plant response rating, Corn",corn; [3],0
same,"Plant response rating, Corn",corn; [4],3
same,Corn plant response rating,corn; [6],7
same,Corn plant response rating,corn; [7],0
same,"Plant response rating, Crabgrass",crabgrass; [8],7
same,"Plant response rating, Crabgrass",crabgrass; [1],7
same,Crabgrass plant response rating,crabgrass; [2],9
same,"Plant response rating, Crabgrass",crabgrass; [3],8
same,"Plant response rating, Crabgrass",crabgrass; [4],9
same,Crabgrass plant response rating,crabgrass; [5],10
same,Crabgrass plant response rating,crabgrass; [6],10
same,Crabgrass plant response rating,crabgrass; [7],2
same,"Plant response rating, Giant foxtail",giant foxtail; [8],9
same,"Plant response rating, Giant foxtail",giant foxtail; [1],9
same,Giant foxtail plant response rating,giant foxtail; [2],10
same,"Plant response rating, Giant foxtail",giant foxtail; [3],10
same,"Plant response rating, Giant foxtail",giant foxtail; [4],10
same,Giant foxtail plant response rating,giant foxtail; [5],10
same,Giant foxtail plant response rating,giant foxtail; [6],10
same,Giant foxtail plant response rating,giant foxtail; [7],9
same,"Plant response rating, Morningglory",morningglory; [1],7
same,Morningglory plant response rating,morningglory; [2],9
same,"Plant response rating, Morningglory",morningglory; [3],0
same,"Plant response rating, Morningglory",morningglory; [4],3
same,Morningglory plant response rating,morningglory; [5],6
same,Morningglory plant response rating,morningglory; [6],7
same,Morningglory plant response rating,morningglory; [7],2
same,"Plant response rating, Redroot pigweed",pigweed; [1],9
same,Redroot pigweed plant response rating,pigweed; [2],9
same,"Plant response rating, Redroot pigweed",pigweed; [3],8
same,"Plant response rating, Redroot pigweed",pigweed; [4],9
same,Redroot pigweed plant response rating,pigweed; [5],10
same,Redroot pigweed plant response rating,pigweed; [6],10
same,Redroot pigweed plant response rating,pigweed; [7],2
same,"Plant response rating, Rape",rape; [1],10
same,Rape plant response rating,rape; [2],10
same,"Plant response rating, Rape",rape; [3],0
same,"Plant response rating, Rape",rape; [4],2
same,Rape plant response rating,rape; [5],8
same,Rape plant response rating,rape; [6],8
same,Rape plant response rating,rape; [7],7
same,"Plant response rating, Sugarbeets",sugar beet; [1],5
same,Sugarbeets plant response rating,sugar beet; [2],7
same,"Plant response rating, Sugarbeets",sugar beet; [3],5
same,"Plant response rating, Sugarbeets",sugar beet; [4],7
same,Sugarbeets plant response rating,sugar beet; [5],8
same,Sugarbeets plant response rating,sugar beet; [6],8
same,Sugarbeets plant response rating,sugar beet; [7],0
same,"Plant response rating, Velvetleaf",velvetleaf; [1],7
same,Velvetleaf plant response rating,velvetleaf; [2],8
same,"Plant response rating, Velvetleaf",velvetleaf; [3],2
same,"Plant response rating, Velvetleaf",velvetleaf; [4],4
same,Velvetleaf plant response rating,velvetleaf; [5],6
same,Velvetleaf plant response rating,velvetleaf; [6],7
same,Velvetleaf plant response rating,velvetleaf; [7],0
same,"Plant response rating, Wild oats",wild oat; [1],7
same,Wild oats plant response rating,wild oat; [2],9
same,"Plant response rating, Wild oats",wild oat; [3],3
same,"Plant response rating, Wild oats",wild oat; [4],6
same,Wild oats plant response rating,wild oat; [5],10
same,Wild oats plant response rating,wild oat; [6],10
same,Wild oats plant response rating,wild oat; [7],0
same,"Plant response rating, Rice (0 to 10 scale, 0 is no effect, 10 is complete control)",rice; [9],1
same,"Rice plant response rating (0 to 10 scale, 0 is no effect, 10 is complete control)",rice; [10],1
same,Rice plant response rating,rice; [11],1
same,Rice plant response rating,rice; [12],4
same,"Plant response rating, S. Flatsedge (0 to 10 scale, 0 is no effect, 10 is complete control)",smallflower flatsedge; [9],0
same,"S. Flatsedge plant response rating (0 to 10 scale, 0 is no effect, 10 is complete control)",smallflower flatsedge; [10],0
same,S. Flatsedge plant response rating,smallflower flatsedge; [11],0
same,S. Flatsedge plant response rating,smallflower flatsedge; [12],7
same,"Plant response rating, Barnyardgrass (0 to 10 scale, 0 is no effect, 10 is complete control)",bamyardgrass; [9],2
same,"Barnyardgrass plant response rating (0 to 10 scale, 0 is no effect, 10 is complete control)",bamyardgrass; [10],5
same,Barnyardgrass plant response rating,bamyardgrass; [11],4
same,Barnyardgrass plant response rating,bamyardgrass; [12],9
